Measurements from article PMC3355318 (Toxicological Sciences, 2012).

What was measured:
Huh-7 cells = conditions: ref Lin et al., 2012; cited from earlier work
HepG2 cells = conditions: ref Wang et al., 2002; cited from earlier work
[1] = tested on: 3D spheroids constructed from immortal human C3A hepatocytes (HepG2/C3A)
[2] = ref Schulz and Schmoldt, 2003; cited from earlier work

| SMILES | LD50 converted from published LC50 (Huh-7 cells) | LD50 converted from published LC50 (HepG2 cells) | cellular ATP production at low compound concentrations [1] | LD50 ([1]; human) | Terminal elimination half-life [2] |
| --- | --- | --- | --- | --- | --- |
| CC(=O)Nc1ccc(O)cc1 [APAP, Acetaminophen] | 4.13 mg/mg | 82.32 mg/mg | – | – | – |
| CN(C)C(=N)N=C(N)N [Metformin, metformin] | – | – | slightly increased | 2.76 mg compound/mg cellular protein | – |
| [H]/N=C(/N)N/C(=N/[H])NCCc1ccccc1 [Phenformin, phenformin] | – | – | not seen | – | – |
| CCCC(CCC)C(=O)O [Valproic acid, valproic acid] | – | – | not seen | – | 15 h |
